Laboratory results reported in ChEMBL document CHEMBL2401728, “An unexpected Dimroth rearrangement leading to annelated thieno[3,2-d][1,2,3]triazolo[1,5-a]pyrimidines with potent antitumor activity” (Eur J Med Chem, 2013).

Columns and labels:
Assay type in all cases: functional
OVCAR-4 [1] = experiment: Cytotoxicity against human OVCAR4 cells assessed as cellular growth at 1 uM after 48 hrs by SRB assay relative to control
786-0 [2] = experiment: Cytotoxicity against human 786-0 cells assessed as cellular growth at 0.1 uM after 48 hrs by SRB assay relative to control
ACHN = experiment: Cytotoxicity against human ACHN cells assessed as cellular growth at 1 uM after 48 hrs by SRB assay relative to control
[3] = Cytotoxicity against human EKVX cells after 48 hrs by SRB assay
CCRF-CEM = experiment: Cytotoxicity against human CCRF-CEM cells assessed as cellular growth at 0.1 uM after 48 hrs by SRB assay relative to control
OVCAR-4 [4] = experiment: Cytotoxicity against human OVCAR4 cells assessed as cellular growth at 0.1 uM after 48 hrs by SRB assay relative to control
LOX IMVI [5] = experiment: Cytotoxicity against human LOXIMVI cells assessed as cellular growth at 100 uM after 48 hrs by SRB assay relative to control
786-0 [6] = experiment: Cytotoxicity against human 786-0 cells assessed as cellular growth at 1 uM after 48 hrs by SRB assay relative to control
SF-268 = experiment: Cytotoxicity against human SF268 cells after 48 hrs by SRB assay; details: SF-268, 48 h
UACC-257 = experiment: Cytotoxicity against human UACC257 cells after 48 hrs by SRB assay; details: UACC-257, 48 h
A549 = experiment: Cytotoxicity against human A549 cells after 48 hrs by SRB assay; details: A549, 48 h
HCT-116 = experiment: Cytotoxicity against human HCT116 cells assessed as cellular growth at 0.01 uM after 48 hrs by SRB assay relative to control
M14 = experiment: Cytotoxicity against human M14 cells assessed as cellular growth at 1 uM after 48 hrs by SRB assay relative to control
A498 [7] = experiment: Cytotoxicity against human A498 cells assessed as cellular growth at 1 uM after 48 hrs by SRB assay relative to control
MDA-MB-231 [8] = experiment: Cytotoxicity against human MDA-MB-231 cells assessed as cellular growth at 0.1 uM after 48 hrs by SRB assay relative to control
LOX IMVI [9] = experiment: Cytotoxicity against human LOXIMVI cells assessed as cellular growth at 1 uM after 48 hrs by SRB assay relative to control
DU-145 = experiment: Cytotoxicity against human DU145 cells assessed as cellular growth at 1 uM after 48 hrs by SRB assay relative to control
HOP-62 = experiment: Cytotoxicity against human HOP62 cells assessed as cellular growth at 10 uM after 48 hrs by SRB assay relative to control
MCF7 = experiment: Cytotoxicity against human MCF7 cells assessed as cellular growth at 1 uM after 48 hrs by SRB assay relative to control
LOX IMVI [10] = experiment: Cytotoxicity against human LOXIMVI cells assessed as cellular growth at 0.01 uM after 48 hrs by SRB assay relative to control
MDA-MB-468 = experiment: Cytotoxicity against human MDA-MB-468 cells assessed as cellular growth at 1 uM after 48 hrs by SRB assay relative to control
NCI-H23 = experiment: Cytotoxicity against human NCI-H23 cells assessed as cellular growth at 0.1 uM after 48 hrs by SRB assay relative to control
OVCAR-3 = experiment: Cytotoxicity against human OVCAR3 cells assessed as cellular growth at 100 uM after 48 hrs by SRB assay relative to control
Hs-578T = experiment: Cytotoxicity against human Hs578T cells after 48 hrs by SRB assay
SF-295 [11] = experiment: Cytotoxicity against human SF295 cells assessed as cellular growth at 100 uM after 48 hrs by SRB assay relative to control
SNB-19 = experiment: Cytotoxicity against human SNB19 cells assessed as cellular growth at 0.01 uM after 48 hrs by SRB assay relative to control
SF-295 [12] = experiment: Cytotoxicity against human SF295 cells assessed as cellular growth at 0.1 uM after 48 hrs by SRB assay relative to control
HOP-92 = experiment: Cytotoxicity against human HOP92 cells assessed as cellular growth at 0.01 uM after 48 hrs by SRB assay relative to control
A498 [13] = experiment: Cytotoxicity against human A498 cells after 48 hrs by SRB assay; details: A498, 48 h
T47D = experiment: Cytotoxicity against human T47D cells assessed as cellular growth at 0.01 uM after 48 hrs by SRB assay relative to control
SW-620 = experiment: Cytotoxicity against human SW620 cells assessed as cellular growth at 100 uM after 48 hrs by SRB assay relative to control
MDA-MB-231 [14] = experiment: Cytotoxicity against human MDA-MB-231 cells assessed as cellular growth at 100 uM after 48 hrs by SRB assay relative to control
SK-OV-3 = experiment: Cytotoxicity against human SKOV3 cells assessed as cellular growth at 1 uM after 48 hrs by SRB assay relative to control
LOX IMVI [15] = experiment: Cytotoxicity against human LOXIMVI cells assessed as cellular growth at 0.1 uM after 48 hrs by SRB assay relative to control
SN12C [16] = experiment: Cytotoxicity against human SN12C cells assessed as cellular growth at 100 uM after 48 hrs by SRB assay relative to control
SN12C [17] = experiment: Cytotoxicity against human SN12C cells assessed as cellular growth at 1 uM after 48 hrs by SRB assay relative to control
NCI-H226 = experiment: Cytotoxicity against human NCI-H226 cells assessed as cellular growth at 0.1 uM after 48 hrs by SRB assay relative to control
MDA-MB-435 = experiment: Cytotoxicity against human MDA-MB-435 cells assessed as cellular growth at 100 uM after 48 hrs by SRB assay relative to control
[18] = read-out: LC50 (the source's name)
[19] = read-out: pLC50 (the source's name) (converted)

Structure (SMILES): CN1CCN(CCCn2c3c(sc4ncccc43)c(=O)n3nnc(-c4ccccc4)c23)CC1
- Activity (OVCAR-4 [1]): 93%
- Activity (786-0 [2]): 100%
- Activity (ACHN): 84%
- GI50 ([3]; read-out: GI50): 2.12 µM
- CC50 [3, 18]: 15.7 µM
- TGI ([3]; read-out: TGI): 4.9 µM
- GI50 ([3]; read-out: pGI50 (converted)): 2.14 µM
- CC50 [3, 19]: 83.2 µM
- TGI ([3]; read-out: pTGI (converted)): 4.9 µM
- Activity (CCRF-CEM): 99%
- Activity (OVCAR-4 [4]): 101%
- Activity (LOX IMVI [5]): -46%
- Activity (786-0 [6]): 100%
- GI50 (SF-268; read-out: GI50): 1.61 µM
- CC50 (SF-268; [18]): 6.81 µM
- TGI (SF-268; read-out: TGI): 3.31 µM
- GI50 (SF-268; read-out: pGI50 (converted)): 1.62 µM
- CC50 (SF-268; [19]): 6.76 µM
- TGI (SF-268; read-out: pTGI (converted)): 3.31 µM
- GI50 (UACC-257; read-out: GI50): 1.81 µM
- CC50 (UACC-257; [18]): 6.3 µM
- TGI (UACC-257; read-out: TGI): 3.37 µM
- GI50 (UACC-257; read-out: pGI50 (converted)): 1.82 µM
- CC50 (UACC-257; [19]): 6.31 µM
- TGI (UACC-257; read-out: pTGI (converted)): 3.39 µM
- GI50 (A549; read-out: GI50): 1.79 µM
- TGI (A549; read-out: TGI): 3.4 µM
- GI50 (A549; read-out: pGI50 (converted)): 1.78 µM
- TGI (A549; read-out: pTGI (converted)): 3.39 µM
- Activity (HCT-116): 97%
- Activity (M14): 97%
- Activity (A498 [7]): 76%
- Activity (MDA-MB-231 [8]): 100%
- Activity (LOX IMVI [9]): 86%
- Activity (DU-145): 95%
- Activity (HOP-62): -90%
- Activity (MCF7): 82%
- Activity (LOX IMVI [10]): 93%
- Activity (MDA-MB-468): 101%
- Activity (NCI-H23): 93%
- Activity (OVCAR-3): -84%
- GI50 (Hs-578T; read-out: GI50): 14.9 µM
- CC50 (Hs-578T; [18]): > 100 µM
- TGI (Hs-578T; read-out: TGI): 41.7 µM
- GI50 (Hs-578T; read-out: pGI50 (converted)): 14.8 µM
- CC50 (Hs-578T; read-out: pLC50 (converted)): > 100 µM
- TGI (Hs-578T; read-out: pTGI (converted)): 41.7 µM
- Activity (SF-295 [11]): -84%
- Activity (SNB-19): 101%
- Activity (SF-295 [12]): 94%
- Activity (HOP-92): 99%
- GI50 (A498 [13]; read-out: GI50): 11.2 µM
- CC50 (A498 [13]; [18]): 52.3 µM
- TGI (A498 [13]; read-out: TGI): 24.2 µM
- GI50 (A498 [13]; read-out: pGI50 (converted)): 11.2 µM
- CC50 (A498 [13]; [19]): 52.5 µM
- TGI (A498 [13]; read-out: pTGI (converted)): 24 µM
- Activity (T47D): 89%
- Activity (SW-620): -75%
- Activity (MDA-MB-231 [14]): -42%
- Activity (SK-OV-3): 106%
- Activity (LOX IMVI [15]): 88%
- Activity (SN12C [16]): -47%
- Activity (SN12C [17]): 87%
- Activity (NCI-H226): 80%
- Activity (MDA-MB-435): -83%

Structure (SMILES): O=C(CCCn1c2c(sc3ccccc32)c(=O)n2nnc(-c3ccccc3)c12)NCCc1c[nH]cn1
- Activity (OVCAR-4 [1]): 91%
- Activity (786-0 [2]): 62%
- Activity (ACHN): 83%
- GI50 ([3]; read-out: GI50): 2.5 µM
- CC50 [3, 18]: > 100 µM
- TGI ([3]; read-out: TGI): 15.8 µM
- GI50 ([3]; read-out: pGI50 (converted)): 2.51 µM
- CC50 [3, 19]: > 100 µM
- TGI ([3]; read-out: pTGI (converted)): 15.8 µM
- Activity (CCRF-CEM): 24%
- Activity (OVCAR-4 [4]): 100%
- Activity (LOX IMVI [5]): -100%
- Activity (786-0 [6]): 53%
- GI50 (SF-268; read-out: GI50): 1.54 µM
- CC50 (SF-268; [18]): 6.7 µM
- TGI (SF-268; read-out: TGI): 3.21 µM
- GI50 (SF-268; read-out: pGI50 (converted)): 1.55 µM
- CC50 (SF-268; [19]): 6.76 µM
- TGI (SF-268; read-out: pTGI (converted)): 3.24 µM
- GI50 (UACC-257; read-out: GI50): 2.14 µM
- CC50 (UACC-257; [18]): 7.83 µM
- TGI (UACC-257; read-out: TGI): 4.09 µM
- GI50 (UACC-257; read-out: pGI50 (converted)): 2.14 µM
- CC50 (UACC-257; [19]): 7.76 µM
- TGI (UACC-257; read-out: pTGI (converted)): 4.07 µM
- GI50 (A549; read-out: GI50): 1.29 µM
- TGI (A549; read-out: TGI): 3.21 µM
- GI50 (A549; read-out: pGI50 (converted)): 1.29 µM
- TGI (A549; read-out: pTGI (converted)): 3.24 µM
- Activity (HCT-116): 16%
- Activity (M14): 33%
- Activity (A498 [7]): 55%
- Activity (MDA-MB-231 [8]): 109%
- Activity (LOX IMVI [9]): 82%
- Activity (DU-145): 55%
- Activity (HOP-62): -79%
- Activity (MCF7): 58%
- Activity (LOX IMVI [10]): 103%
- Activity (MDA-MB-468): 8%
- Activity (NCI-H23): 75%
- Activity (OVCAR-3): -100%
- GI50 (Hs-578T; read-out: GI50): 1.47 µM
- TGI (Hs-578T; read-out: TGI): 3.82 µM
- GI50 (Hs-578T; read-out: pGI50 (converted)): 1.48 µM
- TGI (Hs-578T; read-out: pTGI (converted)): 3.8 µM
- Activity (SF-295 [11]): -65%
- Activity (SNB-19): 94%
- Activity (SF-295 [12]): 70%
- Activity (HOP-92): 99%
- GI50 (A498 [13]; read-out: GI50): 1.09 µM
- CC50 (A498 [13]; [18]): 5.61 µM
- TGI (A498 [13]; read-out: TGI): 2.47 µM
- GI50 (A498 [13]; read-out: pGI50 (converted)): 1.1 µM
- CC50 (A498 [13]; [19]): 5.62 µM
- TGI (A498 [13]; read-out: pTGI (converted)): 2.45 µM
- Activity (T47D): 85%
- Activity (SW-620): -100%
- Activity (MDA-MB-231 [14]): -100%
- Activity (SK-OV-3): 84%
- Activity (LOX IMVI [15]): 89%
- Activity (SN12C [16]): -100%
- Activity (SN12C [17]): 36%
- Activity (NCI-H226): 95%
- Activity (MDA-MB-435): -76%
